Assays:
[1] = system: TNF production by human monocytes; experiment: In vitro TNF production by LPS-stimulated human monocytes (ELISA); format: cell-based; conditions: Homo sapiens, Monocyte; Table B; LPS 50 ng/ml, 24 h; read-out: IC50, LPS induced TNF human monocyte data
Protocol: The effects of the compounds enumerated above on the in vitro production of TNF by human monocytes was examined using the following protocol.
Bacterial lipopolysaccharide (LPS) was used to induce TNF production by human peripheral blood monocytes. TNF activity was measured by a modification of Winston et al., ELISA, described below. […] The cells were allowed to adhere for 2 hours, after which time non-adherent cells were removed by gentle washing. […] At the end of the incubation period, culture supernatants were removed and clarified of cells and all debris. Culture supernatants were immediately assayed for TNF levels in the manner described below.
The Elisa employes a murine monoclonal anti-human TNF antibody, described below, as the capture antibody and a polyclonal rabbit anti-human TNF, described below, as the second antibody. […] TNF levels in samples were calculated from a standard curve genereated with recombinant human TNF produced in E. Coli (obtained from SmithKIine Beecham Pharmaceuticals, King of Prussia, Pa., USA).
Polyclonal rabbit anti-human TNF antibodies were prepared by repeated immunization of New Zeland White (NZW) rabbits with recombinant human TNF emulsified in complete Freund's adjuvant (DEFCO, Ill., USA).

endotoxin shock in mice = experiment: In vivo endotoxin shock models (P. acnes and/or LPS-GAL); design: species or system mouse (C57BL/6); conditions: one or both in vivo models
Text: (§1) Two models of endotoxin shock have been utilized to determine in vivo TNF activity and are described below. The actual protocol used in the models is described in Utility Model Examples A and B set out below, i.e. P. acnes model and LPS-GAL model.
The protocol used to test the compound of the method of the subject invention was essentially as has been described in Galanos et al., Proc. Nat'l Acad. Sci USA, 76:5939-43 (1979) whose disclosure is herein incorporated by reference. Briefly, D-gal […] sensitizes various strains of mice to the lethal effects of endotoxin. The administration of D-gal (300-500 mg/kg) intravenously (i.v.) sensitizes the mice to doses of Lipopolysaccharide(LPS ) as low as 0.1 mg. Briefly, male C57BL/6 mice, obtained from Charles River Laboratories (Stone Ridge, N.Y., USA) of 6-12 weeks of age were injected i.v. with 0.1 mg of LPS from Salmonella typhosa (Difco Laboratories, Detroit, Mich., USA) admixed with D(+)-gal (Sigma; 500 mg/kg) in 0.20-0.25 ml pyrogen-free saline. Compounds to be tested were administered at various times prior to or following the i.v. injection of LPS/D-gal. In this model, the control animals usually die 5-6 hr. following the injection of LPS, although on occasion deaths are seen between 24 and 48 hr.
(§2) This model is a modification of the previously described protocol for the in vivo induction of TNF as described in Haranaka et al., Cancer Immunol Immunother. 18:81-90, (1984). Treatment with Proprionibacterium Acnes (P. acnes) (1 mg/animal i.p.) renders mice susceptible to the lethal effects of LPS injected 10 days later.
(§3) P. acnes was purchased from Burroughs Wellcome (Triangle Park, N.C., USA), and […] of the heat-killed bacteria was administered in 0.5 ml pyrogen-free saline by intraperitoneal (i.p.) injection to male C57BL/6 mice, obtained from Charles River Laboratories (Stone Ridge, N.Y., USA) of 6-12 weeks of age. Ten days later, the mice were injected i.v. with 1 mg LPS in 0.25 ml saline. Compounds to be tested were administered at various times prior to or following the injection of LPS. The survival of animals was monitored for 1 week.
Plasma levels of TNF were measured using a modification of the basic sandwich ELISA method described in Winston et al., Current Protocols in Molecular Biology, Pg. 11.2.1, Ausubel et al., Ed. (1987) John Wiley and Sons, New York, USA. The Elisa employed a hampster monoclonal anti-mouse TNF (Genzyme, Boston, Mass., USA ) as the capture antibody and a polyclonal rabbit anti-murine TNF (Genzyme, Boston, Mass., USA ) as the detecting antibody. TNF levels in rat samples were calculated from a standard curve generated with recombinant murine TNF (Genzyme, Boston, Mass., USA). TNF levels determined by ELISA correlated with levels detected by the L929 bioassay of Ruff et. al., J. Immunol. 125:1671-1677 (1980), with 1 Unit of activity in the bioassay corresponding to 70 picograms (pg) of TNF in the ELISA. The ELISA detected levels of TNF down to 25 pg/ml.

[2] = system: IL-1 production by human monocytes; experiment: In vitro IL-1 production by LPS-stimulated human monocytes; format: cell-based; conditions: Homo sapiens, Monocyte; Table 1; LPS 50 ng/ml, 24 h; read-out: IC50, effect on LPS-stimulated IL-1 production by human monocytes
Protocol: Bacterial lipopolysaccharide (LPS) was used to induce IL-1 production by human peripheral blood monocytes. IL-1 activity was measured by its ability to stimulate a Interleukin 2 (IL-2) producing cell line […] to secrete IL-2, in concert with A23187 ionophore, according to the method of Simon et al., J. Immunol. […] The cells were allowed to adhere for 2 hours, after which time non-adherent cells were removed by gentle washing. […] At the end of the incubation period, culture supernatants were removed and clarified of cells and all debris.

[3] = system: arachidonic acid-induced mouse ear swelling; experiment: Arachidonic acid-induced mouse ear swelling (p.o.); format: in vivo; conditions: 50 mg/kg p.o.; *** p less than 0.001
Protocol: ^a Mouse ear edema was measured as described in Griswold et al.,
Inflammation, II(2), 189-199 (1987), the disclosure of which is hereby
incorporated by reference.

5-lipoxygenase = conditions: literature (Lee et al.); cited from earlier work
cyclooxygenase = conditions: literature (Lee et al.); cited from earlier work
[4] = system: arachidonic acid-induced inflammation; conditions: literature (Griswold et al.); cited from earlier work
[5] = system: IL-1 production by human monocytes; conditions: literature (Lee et al.); in words; cited from earlier work
[6] = system: endotoxin shock in D-gal-sensitized mice; experiment: LPS-GAL endotoxin shock model (D-gal-sensitized mice); format: in vivo, mouse (C57BL/6)
Text: as §1
Endotoxin Shock in D-gal-Sensitized Mice
The protocol used to test the compound of the method of the subject invention was essentially as has been described in Galanos et al., Proc. Nat'l Acad. Sci USA, 76:5939-43 (1979) whose disclosure is herein incorporated by reference. Briefly, D-gal […] sensitizes various strains of mice to the lethal effects of endotoxin. The administration of D-gal (300-500 mg/kg) intravenously (i.v.) sensitizes the mice to doses of Lipopolysaccharide(LPS ) as low as 0.1 mg. […]
Plasma levels of TNF were measured using a modification of the basic sandwich ELISA method described in Winston et al., Current Protocols in Molecular Biology, Pg. […] TNF levels in rat samples were calculated from a standard curve generated with recombinant murine TNF (Genzyme, Boston, Mass., USA). TNF levels determined by ELISA correlated with levels detected by the L929 bioassay of Ruff et. al., J. Immunol. […] The ELISA detected levels of TNF down to 25 pg/ml.

[7] = system: serum TNF in P. acnes-sensitized mice; experiment: P. acnes/LPS endotoxin shock model, serum TNF; format: in vivo, mouse (C57BL/6); conditions: P. acnes/LPS treated mice, oral dosage, FIG. 1
Text: as §1
Endotoxin Shock in P. acnes-Sensitized Mice
as §2
as §3, with “Ten days later, the mice were injected i.v. with 1 mg LPS in 0.25 ml saline. Compounds to be tested were administered at various times prior to or following the injection of LPS.” left out
Plasma levels of TNF were measured using a modification of the basic sandwich ELISA method described in Winston et al., Current Protocols in Molecular Biology, Pg. […] TNF levels in rat samples were calculated from a standard curve generated with recombinant murine TNF (Genzyme, Boston, Mass., USA). TNF levels determined by ELISA correlated with levels detected by the L929 bioassay of Ruff et. al., J. Immunol. […]

Row | SMILES | IC50 [1] | Inhibition of in vivo TNF levels / in vivo activity (endotoxin shock in mice) | Protection from lethal effects of endotoxin shock (endotoxin shock in mice) | IC50 [2] | Percent inhibition of arachidonic acid-induced mouse ear swelling [3] | further results
1 | CC[S+]([O-])c1ccc(-c2nc3n(c2-c2ccncc2)CCC3)cc1 (stereo not drawn) [Compound 4] | 7 µM | inhibited in vivo TNF levels | protected the animals from endotoxic induced shock | > 10 µM | 41% | 
2 | Fc1ccc(-c2nc3n(c2-c2ccncc2)CCS3)cc1 [5-(4-pyridyl)-6(4-fluorophenyl)-2,3-dihydroimidazo(2,1-b)thiazole] |  |  |  |  |  | Inhibition of 5-lipoxygenase-mediated arachidonate metabolism (5-lipoxygenase): inhibits; Inhibition of cyclooxygenase-mediated arachidonate metabolism (cyclooxygenase): inhibits; Effects on the edematous and cellular component of arachidonic acid-induced inflammation [4]: inhibitory effects; Inhibition of IL-1 production by LPS-stimulated human monocytes [5]: potent inhibitor of IL-1 production
3 | CCSc1ccc(-c2nc3n(c2-c2ccncc2)CCC3)cc1 [Compound 3] |  |  |  | 2 µM | 56% | 
4 | CSc1ccc(-c2nc3n(c2-c2ccncc2)CCC3)cc1 [Compound 1, 2-(4-methylthiophenyl)-3-(4-pyridyl)-6,7-dihydro-[5H]-pyrrolo-[1,2-a-]-imidazole] | 1 µM |  |  | 2 µM | 56% | 
5 | Cc1cc(-c2c(-c3ccc([S+](C)[O-])cc3)nc3n2CCC3)ccn1 (stereo not drawn) [Compound 6, 2-(4-methylsulfinylphenyl)-3-(4-(2-methyl)-pyridyl)-6,7-dihydro-[5H]-pyrrolo-[1,2-a]-imidazole] |  |  |  | > 10 µM | 59% | 
6 | CC(Cc1ccc(O)c(O)c1)C(C)Cc1ccc(O)c(O)c1 (stereo not drawn) [nordihydroguaiaretic acid] |  |  |  |  |  | Inhibition of IL-1 production by LPS-stimulated human monocytes [5]: with the exception of nordihydroguaiaretic acid, were inactive
7 | CSc1ccc(-c2nc3n(c2-c2ccnc(C)c2)CCC3)cc1 [Compound 5, 2-(4-methylthiophenyl)-3-(4-(2-methyl)pyridyl)-6,7-dihydro-[5H]-pyrrolo-[1,2-a-]-imidazole] | 7 µM | inhibited in vivo TNF levels | protected the animals from endotoxic induced shock | 2.7 µM | 59% | 
8 | C[S+]([O-])c1ccc(-c2nc3n(c2-c2ccncc2)CCC3)cc1 (stereo not drawn) [Compound 2, 2-(4-methylsulfinylphenyl)-3-(4-pyridyl)-6,7-dihydro-[5H]-pyrrolo-[1,2-a]-imidazole] | > 10 µM | in vivo activity | protection from the lethal effects of endotoxin shock | > 10 µM | 44% | Reduction of serum TNF levels ([6]; 100 mg/kg, FIG. 3): reduction of serum TNF levels; Survival rate of animals with endotoxic shock ([6]; FIG. 4, control group 30%): 100%; Reduction in serum / in vivo TNF levels [7]: decreased levels of in vivo TNF relative to increased oral dosage

From US5317019A, “Inhibition of interleukin-1 and tumor necrosis factor production by monocytes and/or macrophages” (priority 1991, dated 1994)
